Measured values: patent US20130203718A1 (priority 2010, published 2013)

Tests used:
hPRB = molecular target: T1, hPRB (Homo sapiens, UniProt P06401); experiment: PR transactivation assay (GRE2-Luc) in HEK293T cells transiently expressing hPRB; type: cell-based; set-up: expressed in transfected cells; host or cells: HEK 293T; conditions: APRn 1 μM
T1 sequence (P06401 1-933): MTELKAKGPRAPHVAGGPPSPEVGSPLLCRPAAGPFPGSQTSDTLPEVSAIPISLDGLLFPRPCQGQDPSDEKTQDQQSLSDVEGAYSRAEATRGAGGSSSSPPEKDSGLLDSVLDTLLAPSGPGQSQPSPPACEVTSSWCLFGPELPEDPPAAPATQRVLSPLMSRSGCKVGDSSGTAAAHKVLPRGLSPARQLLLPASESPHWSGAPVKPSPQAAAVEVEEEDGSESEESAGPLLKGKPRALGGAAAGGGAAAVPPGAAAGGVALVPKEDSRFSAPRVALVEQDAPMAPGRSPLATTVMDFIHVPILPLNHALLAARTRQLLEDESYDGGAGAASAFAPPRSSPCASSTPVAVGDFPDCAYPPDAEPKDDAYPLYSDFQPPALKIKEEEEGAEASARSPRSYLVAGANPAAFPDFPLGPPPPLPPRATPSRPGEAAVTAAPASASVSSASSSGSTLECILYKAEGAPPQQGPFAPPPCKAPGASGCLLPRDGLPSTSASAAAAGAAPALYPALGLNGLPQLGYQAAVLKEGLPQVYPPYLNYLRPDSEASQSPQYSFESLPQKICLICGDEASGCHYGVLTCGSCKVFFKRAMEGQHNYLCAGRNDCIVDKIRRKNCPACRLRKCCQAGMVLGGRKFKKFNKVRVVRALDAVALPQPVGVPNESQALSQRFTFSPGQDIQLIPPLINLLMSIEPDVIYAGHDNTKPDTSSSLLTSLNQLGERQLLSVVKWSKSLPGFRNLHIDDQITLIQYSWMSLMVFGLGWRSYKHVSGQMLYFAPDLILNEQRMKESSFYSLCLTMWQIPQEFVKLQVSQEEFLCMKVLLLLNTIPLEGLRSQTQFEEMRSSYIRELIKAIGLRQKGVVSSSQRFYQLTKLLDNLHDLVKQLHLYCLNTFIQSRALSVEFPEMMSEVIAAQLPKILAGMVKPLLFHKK
Protocol: PR Transactivation Assays in HEK 293T.
HEK 293T cells were routinely cultured in a high-glucose DMEM medium (Invitrogene, Cergy Pontoise, France), 20 mM HEPES, 2 mM glutamine, 1× non essential amino acids, 100 U/mL penicillin and 100 μg/mL streptomycin supplemented with 10% foetal calf serum (FCS) in a humidified atmosphere at 37° C. and with 5% CO2. One day before transfection, the cells were seeded at 3×10^6 cells/[…] diameter culture Petri dish and cultured overnight in the same medium. Six hours before transfection, the FCS supplemented medium was replaced by the same medium supplemented with 10% dextran-charcoal treated FCS. Transfections were carried out using the calcium phosphate precipitation method. The calcium phosphate precipitate was prepared with 0.5 μg pchPRB (Petit-Topin, et al Mol Pharmacol, 2009, 75, 1317), 7 μg reporter vector (GRE2-Luc from A. Biola-Vidamment and M. Pallardy) and 1 μg of pcβgal for an internal transfection control, in 1 mL 140 mM NaCl, 0.75 mM Na2HPO4, 25 mM HEPES, 125 mM CaCl2 pH 7.05 and added to the cells 30 minutes later. After 16 h incubation, the transfected cells were washed with PBS containing 2.5 mM EDTA, trypsinized and pooled. The transfected cells were replated in 24-well plates (100.000 transfected cells/well). […] Cells were lysed in 300 μl PBS 1×, 25 mM glycylglycine, 4 mM EDTA, 15% glycerol, 1% triton X-100, 15 mM MgSO4, pH 7.8 supplemented with 2 mM β-mercaptoethanol. The luciferase activities were quantified by using a Mithras LB940 reader microplates (Berthold).
The APRn “agonist efficacy” was determined from the following formula:
Agonist efficacy=[luciferase activity]1/[luciferase activity]2×100
The APRn “antagonist efficacy” was calculated from the following formula:
Antagonist efficacy=100−[luciferase activity]1/[luciferase activity]2×100
The results are the mean±SEM of three to five independent experiments.
All the synthesized APRn were classified in 4 series depending on the nature of their C3 substituent (R1/R′1 groups). The first one (series 1) includes APRn with no C3 substituent (R1═R′1═H) whereas series 2, 3 and 4 are related to APRn bearing a methoxyl (R1═OMe), a hydroxyl (R1═OH) and a fluorine atom (R1═F), respectively. The agonist/antagonist activities of APRn were determined either in human HEK293T cells transiently expressing hPRB or in human MDA-MB-231 iPRAB cells conditionally expressing hPRB, by using a luciferase reporter gene placed under the control of a glucocorticoid response element (GRE2-Luc). The APRn “agonist efficacy” was determined from the luciferase activity measured in the presence of APRn (1 μM). […] The “agonist efficacy” and “antagonist efficacy” are expressed as defined in the biological protocols section.

hGR = molecular target: T2, hGR (Homo sapiens, UniProt P04150); experiment: APRn selectivity: transactivation in HEK293T cells transiently expressing hGR; type: cell-based; conditions: HEK293T transiently expressing hGR, mean±SEM; for GR Antagonist efficacy (%): dexamethasone 10^−9 M; for Emax: HEK-293T, read-out: GR Agonist efficacy (%)
T2 construct: expressed in transfected cells; host or cells: HEK 293T
T2 sequence (P04150 1-777): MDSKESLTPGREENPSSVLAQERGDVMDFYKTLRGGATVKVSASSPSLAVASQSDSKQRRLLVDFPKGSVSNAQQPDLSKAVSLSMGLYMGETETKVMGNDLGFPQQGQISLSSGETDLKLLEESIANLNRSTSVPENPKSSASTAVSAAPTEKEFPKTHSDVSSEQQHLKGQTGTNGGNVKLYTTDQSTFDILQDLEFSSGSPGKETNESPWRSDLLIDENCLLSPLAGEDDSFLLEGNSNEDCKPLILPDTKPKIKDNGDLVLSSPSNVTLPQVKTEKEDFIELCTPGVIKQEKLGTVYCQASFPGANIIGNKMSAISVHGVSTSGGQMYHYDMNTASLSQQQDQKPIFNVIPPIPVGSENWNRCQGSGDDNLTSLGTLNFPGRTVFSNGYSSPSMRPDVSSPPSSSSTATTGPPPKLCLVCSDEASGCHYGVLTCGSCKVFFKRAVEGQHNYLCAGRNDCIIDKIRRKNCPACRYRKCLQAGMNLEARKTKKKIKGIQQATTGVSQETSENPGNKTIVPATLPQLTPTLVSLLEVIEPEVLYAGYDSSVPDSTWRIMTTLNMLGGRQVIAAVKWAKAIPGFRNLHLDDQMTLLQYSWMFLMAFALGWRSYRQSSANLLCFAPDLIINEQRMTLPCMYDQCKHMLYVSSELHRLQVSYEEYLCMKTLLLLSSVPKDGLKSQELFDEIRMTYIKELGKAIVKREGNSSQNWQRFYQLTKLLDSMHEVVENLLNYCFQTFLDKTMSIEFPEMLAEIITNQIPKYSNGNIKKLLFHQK
Protocol: (§1) Measurement of the APRn Selectivity in HEK 293T.
(§2) The HEK-293T cells were cultured and transfected according to the method described above for the PR transactivation assays. The expression vectors pcDNA-hAR, kindly provided by G. A. Coetzee, pchGR (Hellal-Levy, C et al. FEBS Lett 1999, 464, 9), and pchMR (Fagart, J. et al. EMBO J. 1998, 17, 3317) were used for studying the ability of APRn to activate or inactivate the AR, GR and MR, respectively. For each transfection assays, 2 μg of the expression vector was used together with 7 μg of the GRE2-Luc reporter vector. Dihydrotestosterone (DHT), dexamethasone (Dex) and Aldosterone (Aldo) were selected as AR, GR and MR ligands, respectively. They were used at the concentration of 10^−9 M. The APRn agonist and antagonist efficacy for AR, GR and MR were measured as described above for PR. The results are the mean±SEM of three independent experiments.
(§3) Transfection assays were performed in HEK 293T cells by using expression vectors for the hAR, hGR and hMR and the GRE2-Luc reporter used for the PR transactivation assays.

hMR = molecular target: T3, hMR (Homo sapiens, UniProt P08235); experiment: APRn selectivity: transactivation in HEK293T cells transiently expressing hMR; type: cell-based; conditions: mean±SEM
T3 construct: expressed in transfected cells; host or cells: HEK 293T
T3 sequence (P08235 1-984): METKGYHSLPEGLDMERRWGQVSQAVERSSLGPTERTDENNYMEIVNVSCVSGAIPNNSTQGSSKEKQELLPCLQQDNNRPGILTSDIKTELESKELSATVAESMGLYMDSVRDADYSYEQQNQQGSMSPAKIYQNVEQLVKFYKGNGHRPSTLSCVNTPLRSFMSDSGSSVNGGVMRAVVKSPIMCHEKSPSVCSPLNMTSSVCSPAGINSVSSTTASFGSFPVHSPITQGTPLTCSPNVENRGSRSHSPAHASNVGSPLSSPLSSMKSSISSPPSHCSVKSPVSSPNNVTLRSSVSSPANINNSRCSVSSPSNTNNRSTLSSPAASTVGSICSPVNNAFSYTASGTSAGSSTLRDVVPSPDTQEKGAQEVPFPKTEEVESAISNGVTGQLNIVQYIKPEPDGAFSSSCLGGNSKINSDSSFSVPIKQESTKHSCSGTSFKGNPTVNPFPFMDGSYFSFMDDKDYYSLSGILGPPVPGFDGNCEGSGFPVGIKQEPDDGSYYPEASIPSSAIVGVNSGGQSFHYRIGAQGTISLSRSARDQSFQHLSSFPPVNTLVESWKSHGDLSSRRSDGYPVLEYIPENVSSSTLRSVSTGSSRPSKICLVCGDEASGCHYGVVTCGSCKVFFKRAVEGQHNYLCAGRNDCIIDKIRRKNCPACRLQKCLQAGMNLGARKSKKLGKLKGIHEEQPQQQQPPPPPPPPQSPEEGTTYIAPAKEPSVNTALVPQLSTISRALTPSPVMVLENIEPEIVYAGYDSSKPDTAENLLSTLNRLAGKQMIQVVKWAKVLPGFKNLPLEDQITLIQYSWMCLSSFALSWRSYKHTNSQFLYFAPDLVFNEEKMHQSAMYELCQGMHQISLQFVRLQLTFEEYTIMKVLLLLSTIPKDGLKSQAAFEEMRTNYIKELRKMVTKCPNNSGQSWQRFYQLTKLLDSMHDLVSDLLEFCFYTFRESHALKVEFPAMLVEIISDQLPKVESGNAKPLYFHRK
Protocol: as §1, §2, §3

[1] = series 2-4, stated for both HEK293T and MDA-MB-231 iPRAB cells, FIGS. 3-8

Row | SMILES | hPRB agonist/antagonist character (in words) (hPRB; [1]) | melting point [°C] | other results
1 | C#CC(C)(O)[C@H]1CC[C@H]2[C@@H]3CC=C4C[C@@H](OC)CC[C@]4(C)[C@H]3CC[C@]12C (stereo partly drawn) [APR-31, 20-Ethynyl-3β-methoxypregn-5-en-20-ol] | antagonist character without any agonist activity | 175 to 176 | 
2 | C#C[C@]1(O)CCC2C3CC[C@H]4CCCC[C@]4(C)C3CC[C@@]21C (stereo partly drawn) [APR-32, 17α-Ethynyl-5α-androstan-17β-ol] |  | 152 to 153 | hPRB agonist/antagonist character (in words) (hPRB; series 1 (no C3 substituent), HEK293T, FIG. 1): full antagonists
3 | C[C@]12CC[C@H](F)CC1=CC[C@@H]1[C@@H]2CC[C@]2(C)C(=O)CC[C@@H]12 [APR-33, 3β-Fluoroandrost-5-en-17-one] | efficient hPRB antagonists | 155 to 156 | 
4 | C#C[C@]1(O)CCC2C3CC=C4C[C@@H](F)CC[C@]4(C)C3CC[C@@]21C (stereo partly drawn) [APR-34, 17α-Ethynyl-3β-fluoro-androst-5-en-17β-ol] | efficient hPRB antagonists | 219 to 220 | 
5 | C[C@]12CC[C@H](F)C[C@@H]1CC[C@@H]1[C@@H]2CC[C@]2(C)C(=O)CC[C@@H]12 [APR-35, 3β-Fluoro-5α-androstan-17-one] | efficient hPRB antagonists | 126 to 127 | 
6 | C#C[C@]1(O)CCC2C3CC[C@H]4C[C@@H](F)CC[C@]4(C)C3CC[C@@]21C (stereo partly drawn) [APR-36, 17α-Ethynyl-3β-fluoro-5α-androstan-17β-ol] | efficient hPRB antagonists | 225 to 226 | 
7 | C[C@]12CC[C@H](F)C[C@@H]1CC[C@@H]1[C@@H]2CC[C@]2(C)[C@@H](O)CC[C@@H]12 [APR-40, 3β-Fluoro-5α-androstan-17β-ol] |  | 150 to 151 | GR Antagonist efficacy (%) (hGR): 5.5 ± 3.9%; Emax (hGR): 0.3 ± 0.06%; MR Antagonist efficacy (%) (hMR; aldosterone 10^−9 M): 0.4 ± 2.6%; MR Agonist efficacy (%) (hMR): 0.57 ± 0.05%
8 | CC(=O)O[C@H]1CCC2C3CC=C4C[C@@H](F)CC[C@@H]4C3CC[C@@]21C (stereo partly drawn) [APR-45, 17β-Acetoxy-3β-fluoro-19-nor-androst-5-ene] | efficient hPRB antagonists | 104 to 105 | 
9 | C[C@]12CCC3C(CC=C4C[C@@H](F)CC[C@@H]43)C1CC[C@@H]2O (stereo partly drawn) [APR-46, 31-Fluoro-19-nor-androst-5-en-17β-ol] | efficient hPRB antagonists | 121 to 122 | 
10 | C#C[C@]1(O)CCC2C3CC=C4C[C@@H](F)CC[C@@H]4C3CC[C@@]21C (stereo partly drawn) [APR-50, 17α-Ethynyl-3β-fluoro-19-nor-androst-5-en-17β-ol] |  | 149 to 150 | GR Antagonist efficacy (%) (hGR): 7.4 ± 1.9%; Emax (hGR): 0.25 ± 0.1%
